B1: polypeptide (SEQ ID NO: 2): ω3 desaturase derived from Pythium folliculosum or Pythium torulosum, encoded by cDNA SEQ ID NO: 1 (protein, listed as Pythium folliculosum)
chain: MADVNTSSPAAAPVATPEPFEFPSLTELKRSIPARYFESSAPRSLLFTARAFAFAYAFGAALFHARQLPLVAEHAALDALLCAAYTFLQGVNMWGFFTIGHDCGHGSFSRYHLLNFVVGTLTHSLILTPYEAWKLSHRLHHKNTGNIDQDEIFYPQRKETVNDPARKMVLSFGLAWWIYEIIGFPPRTEEHTELRDSLFSRHLITGSLSVLAHLACVMLAFNLTYVLGWATMGVYYWAPLFVFASMLVITTFLHHNDEETPWYADSEWTYVKGNLSSVDRDYGWVVNHLSHNIGTHQVHHLFPIIPHYNLNGATEYFRKAFPHLVRKSDDRILPAFVRVGLLYVKYGVIENDAKHFSLKDNREVLTKRA
modifications: Omega-3 desaturase

Tested on: polypeptide (SEQ ID NO: 2) ω3 desaturase
Assay: conversion of added ω6 unsaturated fatty acids to ω3 unsaturated fatty acids by yeast transformant expressing the cDNA (SEQ ID NO: 1)
Type: cell-based, Pythium folliculosum
Settings: for conversion into the corresponding ω3 unsaturated fatty acid / Conversion rate (%): Saccharomyces cerevisiae InvSc1 transformant, 28° C., two days; for Conversion rate (%): substrate added to medium, [product amount/(substrate amount + product amount)] × 100
Procedure: The cDNA (SEQ ID NO: 1) prepared in the above was integrated into a yeast expression vector, pYE22m (Biosci. Biotech. Biochem., 1995, 59: 1221-1228). The vector was introduced into Saccharomyces cerevisiae InvSc1 strain (tryptophan auxotrophy […]) by an electroporation method to obtain a transformant. The transformant was cultured in YPD culture medium (polypeptone 20 g, yeast extract 10 g, adenine 0.4 g, agar 20 g and glucose 20 g were diluted in 1,000 mL of water) at 28° C. for one day to express the polypeptide from cDNA integrated therein. Note that ω3 desaturase inherent in the oleaginous yeast is not expressed in this culture condition. Subsequently, to the culture medium, an ω6 unsaturated fatty acid: linoleic acid (LA, 18: 2n-6), γ-linolenic acid (GLA, 18: 3n-6), dihomo-γ-linolenic acid (DGLA, 20: 3n-6), or arachidonic acid (ARA, 20: 4n-6) was added and cultured at 28° C. for two days. Thereafter the amounts of the corresponding ω3 unsaturated fatty acid: α-linolenic acid (ALA, 18: 3n-3), stearidonic acid (SDA, 18: 4n-3), eicosatetraenoic acid (ETA, 20: 4n-3) or eicosapentaenoic acid (EPA, 20: 5n-3) produced by ω3 unsaturation were measured.

Row | Molecule | conversion into the corresponding ω3 unsaturated fatty acid | Conversion rate (%) | ω3 desaturation activity (expressed in Saccharomyces cerevisiae InvSc1, 28° C.)
1 | CCCCC/C=C\C/C=C\C/C=C\C/C=C\CCCC(=O)O [AA, arachidonic acid] | converted into the corresponding ω3 unsaturated fatty acids | 7.86% | 
2 | CCCCC/C=C\C/C=C\C/C=C\CCCCCCC(=O)O [DGLA, dihomo-γ-linolenic acid] | converted into the corresponding ω3 unsaturated fatty acids | 6.90% | 
3 | CCCCC/C=C\C/C=C\C/C=C\CCCCC(=O)O [GLA, γ-linolenic acid] | converted into the corresponding ω3 unsaturated fatty acids | 8.36% | 
4 | CCCCC/C=C\C/C=C\CCCCCCCC(=O)O [LA, linoleic acid] | converted into the corresponding ω3 unsaturated fatty acids | 3.03% | 
5 | B1 |  |  | an enzyme having ω3 desaturation activity at normal temperature
